Laboratory results as given in paper PMC6236407 (Molecules : A Journal of Synthetic Chemistry and Natural …, 2001).

Legend:
5-HT2A receptors = 5-HT2A receptors (Rattus norvegicus, UniProt P14842); assay: Radioligand binding, displacement of [3H]-ketanserin in rat cortex
5-HT1A receptors = target: T1, 5-HT1A receptors (Rattus norvegicus, UniProt P19327); assay: Radioligand binding, displacement of [3H]-8-OH-DPAT in rat hippocampus
T1 sequence (P19327 1-422): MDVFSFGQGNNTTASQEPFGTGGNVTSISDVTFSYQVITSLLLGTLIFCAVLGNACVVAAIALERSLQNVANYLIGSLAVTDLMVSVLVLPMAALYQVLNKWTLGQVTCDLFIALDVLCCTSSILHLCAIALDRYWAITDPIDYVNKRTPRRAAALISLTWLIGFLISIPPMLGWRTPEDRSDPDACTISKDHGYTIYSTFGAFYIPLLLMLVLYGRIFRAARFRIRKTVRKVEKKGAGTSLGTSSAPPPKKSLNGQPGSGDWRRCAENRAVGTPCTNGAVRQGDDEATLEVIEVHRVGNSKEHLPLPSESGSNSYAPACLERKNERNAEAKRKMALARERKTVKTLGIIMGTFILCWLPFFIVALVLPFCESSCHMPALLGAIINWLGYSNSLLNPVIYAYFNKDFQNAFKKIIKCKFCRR

[1] = system: 5-HT1A serotonin receptor sites; conditions: background statement, no reference given; cited from earlier work

5-HT2A receptors, sequence (P14842 whole entry): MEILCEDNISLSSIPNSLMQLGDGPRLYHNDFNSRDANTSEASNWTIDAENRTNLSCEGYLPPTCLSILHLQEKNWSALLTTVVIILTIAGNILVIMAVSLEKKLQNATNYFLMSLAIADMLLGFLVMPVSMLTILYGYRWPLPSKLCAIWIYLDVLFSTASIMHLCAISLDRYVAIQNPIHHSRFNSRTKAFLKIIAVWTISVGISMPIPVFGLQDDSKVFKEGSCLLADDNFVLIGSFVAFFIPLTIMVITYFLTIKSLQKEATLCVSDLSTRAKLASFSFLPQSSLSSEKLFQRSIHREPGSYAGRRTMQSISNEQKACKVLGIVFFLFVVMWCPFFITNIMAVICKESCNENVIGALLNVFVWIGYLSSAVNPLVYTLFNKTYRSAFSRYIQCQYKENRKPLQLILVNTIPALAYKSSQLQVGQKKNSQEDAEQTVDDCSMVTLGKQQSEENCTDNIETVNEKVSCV

| SMILES | Ki (5-HT2A receptors) | Ki (5-HT1A receptors) | binding to 5-HT1A serotonin receptor sites (in words) [1] |
| --- | --- | --- | --- |
| O=c1ccc(=O)n(-c2ccccc2)n1CCCCN1CCN(c2ccccc2)CC1 [Compound 9c, 2-[4-(4-phenyl-1-piperazinyl)butyl]-1-phenyl-1,2-dihydropyridazine-3,6-dione] | 409 ± 17 nM | 19 ± 1 nM | – |
| CC1(C)CC(=O)N(CCCCN2CCN(c3ncccn3)CC2)C(=O)C1 [Gepirone] | – | – | high affinity and selectivity |
| O=c1c2ccccc2c(=O)n(-c2ccccc2)n1CCCCN1CCN(c2ccccc2)CC1 [Compound 8c, 3-[4-(4-phenyl-1-piperazinyl)butyl]-2-phenyl-2,3-dihydrophthalazine-1,4-dione] | 309 ± 1 nM | 119 ± 8 nM | – |
| O=C1c2ccccc2S(=O)(=O)N1CCCCN1CCN(c2ncccn2)CC1 [Ipsapirone] | – | – | high affinity and selectivity |
| O=C1CC2(CCCC2)CC(=O)N1CCCCN1CCN(c2ncccn2)CC1 [Buspirone, {4-[4-(2-pyrimidinyl)-1-piperazinyl]butyl}-8-azaspiro[4.5]decane-7,9-dione] | – | – | high affinity and selectivity |
